pEC50, pIC50: −log10 of the molar value.
Legend:
[1] = target: T1, Cell division cycle 7-related protein kinase (Homo sapiens, UniProt O00311); assay: Inhibition of N-terminus Myc-tagged human CDC7 expressed in Escherichia coli by chemiluminescence assay in presence of ATP
[2] = target: Casein kinase II alpha/beta (Homo sapiens, UniProt P68400); assay: Inhibition of human tertrameric CK2alphabeta holoenzyme using casein as substrate after 1 to 2 hrs by chemiluminescence assay in presence of 2 uM ATP; type: protein-complex assay
Sequence of Casein kinase II alpha/beta (P67870 whole entry): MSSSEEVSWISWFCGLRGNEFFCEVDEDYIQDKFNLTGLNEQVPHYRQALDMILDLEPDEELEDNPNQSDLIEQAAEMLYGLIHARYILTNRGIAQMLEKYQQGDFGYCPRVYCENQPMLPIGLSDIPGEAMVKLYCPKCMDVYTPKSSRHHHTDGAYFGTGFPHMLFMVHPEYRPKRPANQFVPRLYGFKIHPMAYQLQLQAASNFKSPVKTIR
Sequence of Casein kinase II alpha/beta (P68400 whole entry): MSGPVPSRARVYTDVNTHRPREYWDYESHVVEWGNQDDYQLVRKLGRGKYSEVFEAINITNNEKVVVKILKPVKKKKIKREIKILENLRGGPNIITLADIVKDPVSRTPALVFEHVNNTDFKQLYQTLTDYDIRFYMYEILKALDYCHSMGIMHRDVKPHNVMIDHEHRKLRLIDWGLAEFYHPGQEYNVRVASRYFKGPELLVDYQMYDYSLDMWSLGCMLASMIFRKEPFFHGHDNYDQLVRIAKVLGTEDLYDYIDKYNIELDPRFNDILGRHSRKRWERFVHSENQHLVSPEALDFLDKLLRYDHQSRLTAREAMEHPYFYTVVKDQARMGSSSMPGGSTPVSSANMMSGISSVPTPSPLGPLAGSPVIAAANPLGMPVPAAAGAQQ

[3] = target: Serine/threonine-protein kinase pim-1 (Homo sapiens, UniProt P11309); assay: Inhibition of N-terminus His-tagged human PIM1 expressed in Escherichia coli using AKRRRLSA as substrate after 1 to 2 hrs by chemiluminescence assay
Sequence of Serine/threonine-protein kinase pim-1 (P11309 whole entry): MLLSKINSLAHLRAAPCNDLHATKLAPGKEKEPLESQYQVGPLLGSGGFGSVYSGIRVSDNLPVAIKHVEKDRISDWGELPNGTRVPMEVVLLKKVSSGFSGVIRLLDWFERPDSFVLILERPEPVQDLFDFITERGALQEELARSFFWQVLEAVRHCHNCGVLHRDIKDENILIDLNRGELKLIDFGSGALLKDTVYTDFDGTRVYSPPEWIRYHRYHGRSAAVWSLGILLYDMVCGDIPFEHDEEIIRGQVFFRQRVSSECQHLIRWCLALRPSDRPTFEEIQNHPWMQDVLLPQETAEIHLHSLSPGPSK

[4] = target: T1, Cell division cycle 7-related protein kinase; assay: Inhibition of CDC7 in human MDA-MB-231T cells assessed as inhibition of MCM2 phosphorylation at Ser53 after 4 hrs; type: cell-based
Caco-2 [5] = assay: Induction of apoptosis in human Caco2 cells assessed as increase in caspase 3/7 activity; type: functional, cell-based
Caco-2 [6] = assay: Antiproliferative activity against human Caco2 cells assessed as inhibition of anchorage-independent growth in soft agar; type: functional, cell-based
[7] = Cmax in rat at 3 mg/kg, po; type: ADME, organism-based; parameters: dose 3 mg/kg, route oral; settings: in vivo
[8] = AUC in rat at 3 mg/kg, po; type: ADME, organism-based; parameters: dose 3 mg/kg, route oral; settings: plasma
[9] = Clearance in rat; type: ADME, organism-based; settings: in vivo
[10] = Volume of distribution at steady state in rat; type: ADME, organism-based; settings: in vivo, read-out: Vdss
[11] = Half life in rat; type: ADME, organism-based; settings: in vivo
[12] = Oral bioavailability in rat at 3 mg/kg; type: ADME, organism-based; settings: in vivo
Mus musculus [13] = assay: Inhibition of CDC7-mediated MCM2 phosphorylation at Ser40/41 in human Caco2 cells xenografted in athymic nude mouse at 3 mg/kg, po after 4 hrs by Western blot analysis; type: functional; settings: Caco-2, 4 h
Mus musculus [14] = assay: Inhibition of CDC7-mediated MCM2 phosphorylation at Ser40/41 in human Caco2 cells xenografted in po dosed athymic nude mouse by after 4 hrs Western blot analysis; type: functional; settings: Caco-2, po
[15] = Plasma concentration in athymic nude mouse bearing human Caco2 cells at 3 mg/kg, po measured after 4 hrs; type: ADME, organism-based, Caco-2; parameters: dose 3 mg/kg, route oral
[16] = Plasma concentration in athymic nude mouse bearing human Caco2 cells at 10 mg/kg, po measured after 4 hrs; type: ADME, organism-based, Caco-2; parameters: dose 10 mg/kg, route oral
[17] = Plasma concentration in athymic nude mouse bearing human Caco2 cells at 30 mg/kg, po measured after 4 hrs; type: ADME, organism-based, Caco-2; parameters: dose 30 mg/kg, route oral
[18] = Plasma concentration in athymic nude mouse bearing human Caco2 cells at 100 mg/kg, po measured after 4 hrs; type: ADME, organism-based, Caco-2; parameters: dose 100 mg/kg, route oral
[19] = Drug uptake in tumor of Caco2 cells xenografted athymic nude mouse at 3 mg/kg, po measured after 4 hrs; type: ADME, organism-based, Neoplasm, Caco-2; parameters: dose 3 mg/kg, route oral; settings: read-out: Drug uptake
[20] = Drug uptake in tumor of Caco2 cells xenografted athymic nude mouse at 10 mg/kg, po measured after 4 hrs; type: ADME, organism-based, Neoplasm, Caco-2; parameters: dose 10 mg/kg, route oral; settings: read-out: Drug uptake
[21] = Drug uptake in tumor of Caco2 cells xenografted athymic nude mouse at 30 mg/kg, po measured after 4 hrs; type: ADME, organism-based, Neoplasm, Caco-2; parameters: dose 30 mg/kg, route oral; settings: read-out: Drug uptake
[22] = Drug uptake in tumor of Caco2 cells xenografted athymic nude mouse at 100 mg/kg, po measured after 4 hrs; type: ADME, organism-based, Neoplasm, Caco-2; parameters: dose 100 mg/kg, route oral; settings: read-out: Drug uptake
Caco-2 [23] = assay: Antitumor activity against human Caco2 cells xenografted in athymic nude mouse assessed as tumor growth inhibition at 3 mg/kg, po QD administered for 14 days; type: functional; settings: Caco-2, 336 h, read-out: GI
Caco-2 [24] = assay: Antitumor activity against human Caco2 cells xenografted in athymic nude mouse assessed as tumor growth inhibition at 10 mg/kg, po QD administered for 14 days; type: functional; settings: Caco-2, 336 h, read-out: GI
Caco-2 [25] = assay: Antitumor activity against human Caco2 cells xenografted in athymic nude mouse assessed as tumor growth inhibition at 30 mg/kg, po QD administered for 14 days; type: functional; settings: Caco-2, 336 h, read-out: GI
Caco-2 [26] = assay: Antitumor activity against human Caco2 cells xenografted in athymic nude mouse assessed as tumor growth inhibition at 100 mg/kg, po QD administered for 14 days; type: functional; settings: Caco-2, 336 h, read-out: GI
Caco-2 [27] = assay: Antitumor activity against human Caco2 cells xenografted in athymic nude mouse assessed as tumor growth inhibition at 30 mg/kg, po BID administered for 14 days; type: functional; settings: Caco-2, 336 h, read-out: GI
Caco-2 [28] = assay: Antitumor activity against human Caco2 cells xenografted in athymic nude mouse assessed as tumor growth inhibition at 100 mg/kg, po Q2D administered for 14 days; type: functional; settings: Caco-2, 336 h, read-out: GI
Caco-2 [29] = assay: Antitumor activity against human Caco2 cells xenografted in athymic nude mouse assessed as tumor regression at 100 mg/kg, po QD administered for 14 days; type: functional
Caco-2 [30] = assay: Antitumor activity against human Caco2 cells xenografted in athymic nude mouse assessed as tumor regression at 30 mg/kg, po BID administered for 14 days; type: functional
Caco-2 [31] = assay: Antitumor activity against human Caco2 cells xenografted in athymic nude mouse assessed as tumor regression at 100 mg/kg, po Q2D administered for 14 days; type: functional
Mus musculus [32] = assay: Toxicity in athymic nude mouse bearing human Caco2 cells assessed as decrease in body weight at 3 mg/kg, po QD administered for 14 days; type: organism-based, Caco-2; parameters: dose 3 mg/kg, route oral; scale not given: the % may be the effect or the level left; settings: in vivo, 336 h
Mus musculus [33] = assay: Toxicity in athymic nude mouse bearing human Caco2 cells assessed as decrease in body weight at 10 mg/kg, po QD administered for 14 days; type: organism-based, Caco-2; parameters: dose 10 mg/kg, route oral; scale not given: the % may be the effect or the level left; settings: in vivo, 336 h
Mus musculus [34] = assay: Toxicity in athymic nude mouse bearing human Caco2 cells assessed as decrease in body weight at 30 mg/kg, po QD administered for 14 days; type: organism-based, Caco-2; parameters: dose 30 mg/kg, route oral; scale not given: the % may be the effect or the level left; settings: in vivo, 336 h
Mus musculus [35] = assay: Toxicity in athymic nude mouse bearing human Caco2 cells assessed as decrease in body weight at 100 mg/kg, po QD administered for 14 days; type: organism-based, Caco-2; parameters: dose 100 mg/kg, route oral; scale not given: the % may be the effect or the level left; settings: in vivo, 336 h
Mus musculus [36] = assay: Toxicity in athymic nude mouse bearing human Caco2 cells assessed as decrease in body weight at 30 mg/kg, po BID administered for 14 days; type: organism-based, Caco-2; parameters: dose 30 mg/kg, route oral; scale not given: the % may be the effect or the level left; settings: in vivo, 336 h
Mus musculus [37] = assay: Toxicity in athymic nude mouse bearing human Caco2 cells assessed as decrease in body weight at 100 mg/kg, po Q2D administered for 14 days; type: organism-based, Caco-2; parameters: dose 100 mg/kg, route oral; scale not given: the % may be the effect or the level left; settings: in vivo, 336 h
Cytochrome P450 3A4 = Cytochrome P450 3A4 (Homo sapiens, UniProt P08684); assay: Inhibition of CYP3A4; type: ADME
Sequence of Cytochrome P450 3A4 (P08684 whole entry): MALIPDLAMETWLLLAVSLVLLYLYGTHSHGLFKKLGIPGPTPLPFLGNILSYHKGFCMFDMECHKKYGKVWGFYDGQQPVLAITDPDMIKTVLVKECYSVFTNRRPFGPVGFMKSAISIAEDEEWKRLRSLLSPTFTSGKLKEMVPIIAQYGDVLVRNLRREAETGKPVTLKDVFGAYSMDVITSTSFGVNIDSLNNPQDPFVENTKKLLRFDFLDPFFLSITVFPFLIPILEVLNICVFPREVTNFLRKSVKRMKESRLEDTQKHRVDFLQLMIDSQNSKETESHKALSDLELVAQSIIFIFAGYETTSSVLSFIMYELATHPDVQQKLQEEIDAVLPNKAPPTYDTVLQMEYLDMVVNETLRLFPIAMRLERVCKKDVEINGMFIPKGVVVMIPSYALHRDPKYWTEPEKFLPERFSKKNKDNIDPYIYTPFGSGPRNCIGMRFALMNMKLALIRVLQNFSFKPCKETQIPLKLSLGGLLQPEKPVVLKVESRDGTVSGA

Cytochrome P450 2C9 = Cytochrome P450 2C9 (Homo sapiens, UniProt P11712); assay: Inhibition of CYP2C9; type: ADME
Sequence of Cytochrome P450 2C9 (P11712 whole entry): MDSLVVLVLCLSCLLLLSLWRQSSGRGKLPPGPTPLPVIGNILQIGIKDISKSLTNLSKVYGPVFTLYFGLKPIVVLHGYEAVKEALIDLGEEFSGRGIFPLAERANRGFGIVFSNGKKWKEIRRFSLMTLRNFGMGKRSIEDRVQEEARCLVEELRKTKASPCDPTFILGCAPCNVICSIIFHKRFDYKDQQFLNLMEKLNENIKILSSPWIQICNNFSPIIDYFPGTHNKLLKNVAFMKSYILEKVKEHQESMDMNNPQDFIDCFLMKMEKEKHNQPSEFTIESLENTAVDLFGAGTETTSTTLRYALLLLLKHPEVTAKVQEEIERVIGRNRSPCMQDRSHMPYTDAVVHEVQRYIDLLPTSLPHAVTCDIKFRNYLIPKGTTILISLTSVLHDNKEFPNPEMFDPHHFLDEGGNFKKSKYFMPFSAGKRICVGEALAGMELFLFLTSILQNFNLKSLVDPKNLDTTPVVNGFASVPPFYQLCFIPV

Cytochrome P450 2D6 = Cytochrome P450 2D6 (Homo sapiens, UniProt P10635); assay: Inhibition of CYP2D6; type: ADME
Sequence of Cytochrome P450 2D6 (P10635 whole entry): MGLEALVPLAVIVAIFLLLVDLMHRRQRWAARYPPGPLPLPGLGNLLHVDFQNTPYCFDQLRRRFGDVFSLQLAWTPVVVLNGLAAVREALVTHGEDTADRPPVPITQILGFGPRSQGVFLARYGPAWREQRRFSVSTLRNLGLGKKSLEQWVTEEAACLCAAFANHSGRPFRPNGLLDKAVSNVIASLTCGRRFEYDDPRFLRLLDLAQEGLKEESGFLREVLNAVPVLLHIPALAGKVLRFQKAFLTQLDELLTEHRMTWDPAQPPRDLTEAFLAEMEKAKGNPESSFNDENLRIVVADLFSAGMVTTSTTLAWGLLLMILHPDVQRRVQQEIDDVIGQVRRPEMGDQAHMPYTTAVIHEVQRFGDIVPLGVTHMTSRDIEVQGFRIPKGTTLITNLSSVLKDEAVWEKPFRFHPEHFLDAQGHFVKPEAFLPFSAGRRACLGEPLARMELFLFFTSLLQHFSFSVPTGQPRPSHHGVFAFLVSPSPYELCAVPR

Cytochrome P450 2C19 = Cytochrome P450 2C19 (Homo sapiens, UniProt P33261); assay: Inhibition of CYP2C19; type: ADME
Sequence of Cytochrome P450 2C19 (P33261 whole entry): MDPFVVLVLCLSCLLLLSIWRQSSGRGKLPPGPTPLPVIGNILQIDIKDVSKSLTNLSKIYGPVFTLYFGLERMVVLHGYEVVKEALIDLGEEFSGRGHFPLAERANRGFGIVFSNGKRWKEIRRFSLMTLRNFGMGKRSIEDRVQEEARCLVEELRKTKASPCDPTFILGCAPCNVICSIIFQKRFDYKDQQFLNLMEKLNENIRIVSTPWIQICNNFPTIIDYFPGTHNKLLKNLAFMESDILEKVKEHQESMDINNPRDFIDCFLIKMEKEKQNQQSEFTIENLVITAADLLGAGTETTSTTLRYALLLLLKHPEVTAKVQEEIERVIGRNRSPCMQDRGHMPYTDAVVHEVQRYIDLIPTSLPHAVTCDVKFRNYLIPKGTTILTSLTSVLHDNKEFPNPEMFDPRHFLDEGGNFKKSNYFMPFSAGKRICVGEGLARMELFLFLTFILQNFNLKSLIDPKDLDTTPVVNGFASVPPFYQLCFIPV

Cytochrome P450 1A2 = target: T2, Cytochrome P450 1A2 (Homo sapiens, UniProt P05177); assay: Inhibition of CYP1A2; type: ADME
T2 sequence (P05177 whole entry): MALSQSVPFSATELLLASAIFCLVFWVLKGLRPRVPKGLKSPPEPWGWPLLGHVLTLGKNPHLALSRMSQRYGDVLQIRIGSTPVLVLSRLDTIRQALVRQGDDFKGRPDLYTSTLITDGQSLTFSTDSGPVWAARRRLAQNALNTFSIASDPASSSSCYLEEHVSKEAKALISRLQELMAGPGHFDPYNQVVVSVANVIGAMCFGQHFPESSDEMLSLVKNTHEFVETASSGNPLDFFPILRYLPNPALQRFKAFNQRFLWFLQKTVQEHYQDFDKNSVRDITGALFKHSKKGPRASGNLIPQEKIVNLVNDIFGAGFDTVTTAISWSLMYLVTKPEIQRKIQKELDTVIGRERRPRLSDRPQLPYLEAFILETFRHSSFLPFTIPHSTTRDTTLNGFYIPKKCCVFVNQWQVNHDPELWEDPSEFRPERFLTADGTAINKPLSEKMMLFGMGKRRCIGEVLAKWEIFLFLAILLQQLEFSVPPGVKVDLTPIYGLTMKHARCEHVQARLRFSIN

[38] = Plasma concentration in mouse at 100 mg/kg, po measured after 1 hr; type: ADME, organism-based; parameters: dose 100 mg/kg, route oral
[39] = Plasma concentration in mouse at 100 mg/kg, po measured after 4 hrs; type: ADME, organism-based; parameters: dose 100 mg/kg, route oral
[40] = target: T1, Cell division cycle 7-related protein kinase; assay: Inhibition of CDC7 in human Caco2 cells assessed as inhibition of MCM2 phosphorylation at Ser53 after 4 hrs; type: cell-based, Caco-2
Caco-2 [41] = assay: Antiproliferative activity against human Caco2 cells after 3 days by BrdU incorporation assay; type: functional, cell-based; settings: Caco-2, 72 h
Caco-2 [42] = assay: Antiproliferative activity against human Caco2 cells assessed as decrease in cell viability after 3 days by Cell Titer-Glo assay; type: functional, cell-based; settings: Caco-2, 72 h

T1 sequence (O00311 whole entry): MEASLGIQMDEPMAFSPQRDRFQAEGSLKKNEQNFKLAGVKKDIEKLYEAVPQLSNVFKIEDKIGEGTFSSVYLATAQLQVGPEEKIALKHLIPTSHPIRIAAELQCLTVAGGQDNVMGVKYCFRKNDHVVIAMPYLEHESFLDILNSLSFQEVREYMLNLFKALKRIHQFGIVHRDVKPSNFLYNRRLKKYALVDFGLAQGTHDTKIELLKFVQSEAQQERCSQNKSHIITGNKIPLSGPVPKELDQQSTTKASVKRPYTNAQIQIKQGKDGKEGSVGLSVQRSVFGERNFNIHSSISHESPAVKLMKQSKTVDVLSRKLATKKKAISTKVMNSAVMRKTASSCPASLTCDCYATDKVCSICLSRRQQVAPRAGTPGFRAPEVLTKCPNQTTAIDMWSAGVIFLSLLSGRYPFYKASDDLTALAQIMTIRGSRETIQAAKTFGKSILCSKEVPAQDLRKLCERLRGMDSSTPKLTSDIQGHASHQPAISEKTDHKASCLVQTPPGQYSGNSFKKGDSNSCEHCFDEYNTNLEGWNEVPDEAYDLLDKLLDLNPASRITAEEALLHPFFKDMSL

SMILES: CC(N)c1nc2c(oc3ccc(Br)cc32)c(=O)[nH]1 (racemic)
- pIC50 [1]: 8.10
- pIC50 [2]: 6.12
- pIC50 [3]: 7.14
- pIC50 [4]: 6.06

SMILES: O=c1[nH]c([C@@H]2CCCN2)nc2c1oc1ccc(Cl)cc12
- pEC50 (Caco-2 [5]): 5.64
- pIC50 (Caco-2 [6]): 6.15
- Cmax [7]: 8.61 µM
- AUC [8]: 75 µM·h
- clearance [9]: 0.117 L/h/kg
- Vd [10]: 0.55 L/kg
- half-life [11]: 2.32 h
- bioavailability [12]: 95%
- inhibition in vivo at 3 mg/kg (Mus musculus [13]): 70%
- ED50 (Mus musculus [14]): < 3 mg/kg
- concentration at 4 h [15]: 11 µM
- concentration at 4 h [16]: 40.1 µM
- concentration at 4 h [17]: 82.2 µM
- concentration at 4 h [18]: 186 µM
- concentration at 4 h [19]: 3.2 µM
- concentration at 4 h [20]: 13.1 µM
- concentration at 4 h [21]: 32.1 µM
- concentration at 4 h [22]: 71.4 µM
- inhibition in vivo at 3 mg/kg (Caco-2 [23]): 8.7%
- inhibition in vivo at 10 mg/kg (Caco-2 [24]): 36%
- inhibition in vivo at 30 mg/kg (Caco-2 [25]): 83%
- inhibition in vivo at 100 mg/kg (Caco-2 [26]): > 100%
- inhibition in vivo at 30 mg/kg (Caco-2 [27]): > 100%
- inhibition in vivo at 100 mg/kg (Caco-2 [28]): > 100%
- Activity (Caco-2 [29]): 70%
- Activity (Caco-2 [30]): 32%
- Activity (Caco-2 [31]): 21%
- Activity (Mus musculus [32]): 0.5%
- Activity (Mus musculus [33]): 3.4%
- Activity (Mus musculus [34]): 8.3%
- Activity (Mus musculus [35]): 4.7%
- Activity (Mus musculus [36]): 6.4%
- Activity (Mus musculus [37]): 4.5%
- pIC50 (Cytochrome P450 3A4): < 4.30
- pIC50 (Cytochrome P450 2C9): < 4.30
- pIC50 (Cytochrome P450 2D6): < 4.30
- pIC50 (Cytochrome P450 2C19): < 4.30
- pIC50 (Cytochrome P450 1A2): 5.16
- pIC50 [1]: 8.47
- pIC50 [2]: 6.67
- pIC50 [3]: 7.38
- pIC50 [4]: 6.93
- concentration at 1 h [38]: 141 µM
- concentration at 4 h [39]: 81 µM
- pIC50 [40]: 6.85
- pIC50 (Caco-2 [41]): 5.57
- pIC50 (Caco-2 [42]): 5.67

SMILES: O=c1[nH]c([C@@H]2C[C@H](F)CN2)nc2c1oc1ccc(Br)cc12
- pIC50 [1]: 7.96
- pIC50 [2]: 5.44
- pIC50 [3]: 7.96
- pIC50 [4]: 6.25

SMILES: CO[C@H]1CCN(Cc2nc3c(oc4ccc(Br)cc43)c(=O)[nH]2)C1
- pIC50 [1]: 7.96
- pIC50 [2]: 6.29
- pIC50 [3]: 7.11
- pIC50 [4]: 6.44

SMILES: O=c1[nH]c(C2CCCNC2)nc2c1oc1ccc(Br)cc12 (racemic)
- pIC50 [1]: 7.82
- pIC50 [2]: 6.76
- pIC50 [3]: 7.41
- pIC50 [4]: 5.63

SMILES: O=c1[nH]c([C@@H]2C[C@@H](O)CN2)nc2c1oc1ccc(Br)cc12
- pIC50 [1]: 8.04
- pIC50 [2]: 6.38
- pIC50 [3]: 7.14
- pIC50 [4]: 6.36

— ChEMBL document CHEMBL2029277, “Discovery of XL413, a potent and selective CDC7 inhibitor” (Bioorg Med Chem Lett, 2012)
